Measurements from patent US20260240763A1, “Inhalable Serotonin Receptor Agonist Formulations” (Pinata Holdings Inc., priority 2022, published 2026).

System: generalized anxiety and/or post-traumatic stress disorder (PTSD)
Assay: Inhaled dry powder given to subjects for generalized anxiety and/or PTSD
Assay type: in vivo, human
Conditions: encapsulated by HPMCAS, inhaler
Protocol: Three male subjects and one subject were administered doses of 5 mg, 10 mg, and 15 mg of psilocybin. Each individual dosage level was administered about three weeks apart for the treatment of generalized anxiety and/or post-traumatic stress disorder (PTSD). In a separate experiment, the subjects were administered doses of 1 mg, 5 mg, and 10 mg of 4-AoC-DMT (O-Acetylpsilocin). Each individual dosage level was administered about three weeks apart for the treatment of generalized anxiety and/or post-traumatic stress disorder (PTSD). The dry powder pharmaceutical compositions comprised psilocybin or 4-AoC-DMT encapsulated by HPMCAS using the methods described herein (e.g., spay drying). The encapsulated dry powder was administered with an inhaler.

SMILES | adverse effects noted (4-AoC-DMT 1 mg and 5 mg, four subjects) | adverse effects noted (4-AoC-DMT 10 mg, indicated by 3 male patients and 1 patient) | effect on anxiety in the subjects (doses of 1 mg and 5 mg of 4-AoC-DMT, each about three weeks apart, three male subjects and one subject) | adverse effects noted (psilocybin 5 mg, 10 mg and 15 mg, four subjects)
CC(=O)Oc1cccc2[nH]cc(CCN(C)C)c12 [4-AoC-DMT, 4-Acetoxy-N,N-dimethyltryptamine] | No adverse effects | too much | reduced anxiety | 
CN(C)CCc1c[nH]c2cccc(OP(=O)(O)O)c12 [psilocybin, 4-phosphoryloxy-N,N-dimethyltryptamine] |  |  |  | No adverse effects
